PubChem BioAssay AID212 (DTP/NCI, 2004)
Where “and” joins values, the source holds several entries; their conditions need not be identical. Equal entries are not always repeated. Records with an inconclusive call do not appear.

Tested on: BDF1 mice, colon carcinoma 38 sc, T/C %
Assay: NCI In Vivo Anticancer Drug Screen. Data for tumor model Colon Carcinoma 38 (subcutaneous) in B6D2F1 (BDF1) mice
Settings: endpoint: median tumor weight (est.), higher = larger tumour
Outline: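 Ratio of survival or tumor size, compound-treated animals relative to vehicle controls, in tumor-bearing mice.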

[1] = dose: 25.0 mg/kg/injection, schedule: Q07DX002 (ip), vehicle: saline with Tween-80
[2] = dose: 200.0 mg/kg/injection, schedule: Q07DX002 (ip), vehicle: saline
[3] = dose: 50.0 mg/kg/injection, schedule: Q07DX002 (ip), vehicle: saline with Tween-80
[4] = dose: 200.0 mg/kg/injection, schedule: Q07DX002 (ip), vehicle: saline with Tween-80
[5] = dose: 400.0 mg/kg/injection, schedule: Q07DX002 (ip), vehicle: saline with Tween-80
[6] = dose: 100.0 mg/kg/injection, schedule: Q07DX002 (ip), vehicle: saline

## Cc1ncc([N+](=O)[O-])n1CCO
dose: 37.5 mg/kg/injection, schedule: Q01DX005 (ip), vehicle: Klucel (hydroxypropylcellulose) (HPC)
  T/C: 78 % of control
dose: 37.5 mg/kg/injection, schedule: Q04DX003 (ip), vehicle: Klucel (hydroxypropylcellulose) (HPC)
  T/C: 88 % of control
dose: 75.0 mg/kg/injection, schedule: Q01DX005 (ip), vehicle: Klucel (hydroxypropylcellulose) (HPC)
  T/C: 61 % of control
dose: 75.0 mg/kg/injection, schedule: Q04DX003 (ip), vehicle: Klucel (hydroxypropylcellulose) (HPC)
  T/C: 121 % of control
dose: 75.0 mg/kg/injection, schedule: Q07DX002 (ip), vehicle: Klucel (hydroxypropylcellulose) (HPC)
  T/C: 74 % of control
dose: 150.0 mg/kg/injection, schedule: Q01DX005 (ip), vehicle: Klucel (hydroxypropylcellulose) (HPC)
  T/C: 83 % of control
dose: 150.0 mg/kg/injection, schedule: Q04DX003 (ip), vehicle: Klucel (hydroxypropylcellulose) (HPC)
  T/C: 80 % of control
dose: 150.0 mg/kg/injection, schedule: Q07DX002 (ip), vehicle: Klucel (hydroxypropylcellulose) (HPC)
  T/C: 156 % of control
dose: 300.0 mg/kg/injection, schedule: Q01DX005 (ip), vehicle: Klucel (hydroxypropylcellulose) (HPC)
  T/C: 93 % of control
dose: 300.0 mg/kg/injection, schedule: Q04DX003 (ip), vehicle: Klucel (hydroxypropylcellulose) (HPC)
  T/C: 75 % of control
dose: 300.0 mg/kg/injection, schedule: Q07DX002 (ip), vehicle: Klucel (hydroxypropylcellulose) (HPC)
  T/C: 103 % of control
dose: 600.0 mg/kg/injection, schedule: Q01DX005 (ip), vehicle: Klucel (hydroxypropylcellulose) (HPC)
  T/C: 105 % of control
dose: 600.0 mg/kg/injection, schedule: Q07DX002 (ip), vehicle: Klucel (hydroxypropylcellulose) (HPC)
  T/C: 99 % of control

## NC(=S)Nc1cccc2ccccc12
dose: 6.25 mg/kg/injection, schedule: Q07DX002 (ip), vehicle: saline with Tween-80
  T/C: 164 % of control
dose: 12.5 mg/kg/injection, schedule: Q07DX002 (ip), vehicle: saline with Tween-80
  T/C: 151 % of control
[1]
  T/C: 162 % of control

## CC(=O)Oc1c(C)[nH]ccc1=O
dose: 6.25 mg/kg/injection, schedule: Q07DX002 (ip), vehicle: saline
  T/C: 107 % of control
[2]
  T/C: 107 % of control

## COc1cc2c(cc1O)C1C(O)C(O)C=C3CCN(C2)C31 (stereo unspecified)
dose: 4.0 mg/kg/injection, schedule: Q07DX002 (ip), vehicle: saline + alcohol
  T/C: 105 % of control
dose: 8.0 mg/kg/injection, schedule: Q07DX002 (ip), vehicle: saline + alcohol
  T/C: 79 % of control
dose: 16.0 mg/kg/injection, schedule: Q07DX002 (ip), vehicle: saline + alcohol
  T/C: 105 % of control
dose: 32.0 mg/kg/injection, schedule: Q07DX002 (ip), vehicle: saline + alcohol
  T/C: 73 % of control

## Nc1nc(-c2cccc3ccccc23)cc2ccccc12
[1]
  T/C: 108 % of control
[3]
  T/C: 123 % of control
[4]
  T/C: 77 % of control
dose: 800.0 mg/kg/injection, schedule: Q07DX002 (ip), vehicle: saline with Tween-80
  T/C: 108 % of control

## Nc1nc([Se])c2ncn(C3OC(CO)C(O)C3O)c2n1 (stereo unspecified)
dose: 4.0 mg/kg/injection, schedule: Q07DX002 (ip), vehicle: saline
  T/C: 23 % of control
dose: 4.0 mg/kg/injection, schedule: Q07DX002 (ip), vehicle: suspension in saline
  T/C: 124 % of control
dose: 4.0 mg/kg/injection, schedule: Q07DX003 (ip), vehicle: saline
  T/C: 170 % of control
dose: 8.0 mg/kg/injection, schedule: Q07DX002 (ip), vehicle: saline
  T/C: 14 % of control
dose: 8.0 mg/kg/injection, schedule: Q07DX002 (ip), vehicle: suspension in saline
  T/C: 112 % of control and 94 % of control
dose: 8.0 mg/kg/injection, schedule: Q07DX003 (ip), vehicle: saline
  T/C: 93 % of control
dose: 16.0 mg/kg/injection, schedule: Q07DX002 (ip), vehicle: saline
  T/C: 20 % of control
dose: 16.0 mg/kg/injection, schedule: Q07DX002 (ip), vehicle: suspension in saline
  T/C: 83 % of control and 86 % of control
dose: 16.0 mg/kg/injection, schedule: Q07DX003 (ip), vehicle: saline
  T/C: 113 % of control
dose: 32.0 mg/kg/injection, schedule: Q07DX002 (ip), vehicle: saline
  T/C: 18 % of control
dose: 32.0 mg/kg/injection, schedule: Q07DX003 (ip), vehicle: saline
  T/C: 92 % of control
dose: 64.0 mg/kg/injection, schedule: Q07DX002 (ip), vehicle: saline
  T/C: 20 % of control
dose: 64.0 mg/kg/injection, schedule: Q07DX002 (ip), vehicle: suspension in saline
  T/C: 71 % of control and 92 % of control
dose: 64.0 mg/kg/injection, schedule: Q07DX003 (ip), vehicle: saline
  T/C: 41 % of control

## CC(=O)Nc1ccc(/C=N/NC(N)=S)cc1
dose: 100.0 mg/kg/injection, schedule: Q07DX002 (ip), vehicle: Klucel (hydroxypropylcellulose) (HPC)
  T/C: 117 % of control and 98 % of control
dose: 400.0 mg/kg/injection, schedule: Q07DX002 (ip), vehicle: Klucel (hydroxypropylcellulose) (HPC)
  T/C: 98 % of control
dose: 450.0 mg/kg/injection, schedule: Q07DX002 (ip), vehicle: saline with Tween-80
  T/C: 86 % of control
dose: 900.0 mg/kg/injection, schedule: Q07DX002 (ip), vehicle: saline with Tween-80
  T/C: 57 % of control
dose: 1800.0 mg/kg/injection, schedule: Q07DX002 (ip), vehicle: saline with Tween-80
  T/C: 119 % of control

## CCCCc1ccc(-n2c(C)c(COC(=O)NC)c(COC(=O)NC)c2C)cc1
dose: 12.5 mg/kg/injection, schedule: Q07DX002 (ip), vehicle: Klucel (hydroxypropylcellulose) (HPC)
  T/C: 88 % of control
dose: 25.0 mg/kg/injection, schedule: Q07DX002 (ip), vehicle: Klucel (hydroxypropylcellulose) (HPC)
  T/C: 66 % of control
dose: 200.0 mg/kg/injection, schedule: Q07DX002 (ip), vehicle: Klucel (hydroxypropylcellulose) (HPC)
  T/C: 60 % of control

## COc1c(O)c2c(c3cc(C(=O)N4CCc5c4c(O)c(OC)c4[nH]c(C(=O)N6CC7CC78C6=CC(=O)c6[nH]cc(C)c68)cc54)[nH]c13)CCN2C(N)=O (stereo unspecified)
dose: 6.25 micrograms/kg/injection, schedule: Q07DX002 (ip), vehicle: DMSO
  T/C: 122 % of control
dose: 25.0 micrograms/kg/injection, schedule: Q07DX002 (ip), vehicle: DMSO
  T/C: 109 % of control
dose: 50.0 micrograms/kg/injection, schedule: Q07DX002 (ip), vehicle: DMSO
  T/C: 89 % of control
dose: 67.0 micrograms/kg/injection, schedule: Q07DX002 (ip), vehicle: other
  T/C: 89 % of control
dose: 100.0 micrograms/kg/injection, schedule: Q07DX002 (ip), vehicle: other
  T/C: 37 % of control

## CCCCn1cnc2c(=S)nc[nH]c21
[3]
  T/C: 87 % of control and 96 % of control
[5]
  T/C: 17 % of control and 21 % of control

## CCC1(O)CC2CN(CCc3c([nH]c4ccccc34)C(C(=O)OC)(c3cc4c(cc3OC)N(C)C3C(O)(C(N)=O)C(O)C5(CC)C=CCN6CCC43C65)C2)C1 (stereo unspecified) (tested in a mixture with another compound)
dose: 0.12 mg/kg/injection, schedule: Q07DX002 (ip), vehicle: water
  T/C: 87 % of control
dose: 0.5 mg/kg/injection, schedule: Q07DX002 (ip), vehicle: water
  T/C: 119 % of control and 94 % of control
dose: 2.0 mg/kg/injection, schedule: Q07DX002 (ip), vehicle: water
  T/C: 36 % of control and 48 % of control
dose: 4.0 mg/kg/injection, schedule: Q07DX002 (ip), vehicle: water
  T/C: 5 % of control and 15 % of control

## C=C(C)[C@@H]1CC[C@@H]2C(=CC[C@]3(C)C([C@H](C)CC/C=C(/C)C(=O)O)CC[C@@]23C)[C@@]1(C)CCC(=O)O (stereo partly specified)
dose: 50.0 mg/kg/injection, schedule: Q07DX002 (ip), vehicle: saline + alcohol
  T/C: 90 % of control
dose: 100.0 mg/kg/injection, schedule: Q07DX002 (ip), vehicle: saline + alcohol
  T/C: 91 % of control
dose: 200.0 mg/kg/injection, schedule: Q07DX002 (ip), vehicle: saline + alcohol
  T/C: 105 % of control
dose: 400.0 mg/kg/injection, schedule: Q07DX002 (ip), vehicle: saline + alcohol
  T/C: 45 % of control

## O=Cc1ccc(O)c(O)c1
dose: 25.0 mg/kg/injection, schedule: Q07DX002 (ip), vehicle: saline
  T/C: 65 % of control
[3]
  T/C: 117 % of control
dose: 50.0 mg/kg/injection, schedule: Q07DX002 (ip), vehicle: saline
  T/C: 85 % of control
dose: 100.0 mg/kg/injection, schedule: Q07DX002 (ip), vehicle: saline with Tween-80
  T/C: 91 % of control
[6]
  T/C: 63 % of control
[4]
  T/C: 108 % of control
[2]
  T/C: 97 % of control
[5]
  T/C: 113 % of control
dose: 800.0 mg/kg/injection, schedule: Q07DX002 (ip), vehicle: saline
  T/C: 88 % of control

## CC(=O)NCCCCCCNC(C)=O
[6]
  T/C: 77 % of control
[2]
  T/C: 66 % of control and 81 % of control
dose: 400.0 mg/kg/injection, schedule: Q07DX002 (ip), vehicle: saline
  T/C: 108 % of control
dose: 1600.0 mg/kg/injection, schedule: Q07DX002 (ip), vehicle: saline
  T/C: 90 % of control and 91 % of control
